pIC50: −log10 of the molar value.
How the values were obtained:
[1] = target: T1, high-conductance calcium-activated potassium (Maxi-K) channels (Homo sapiens, UniProt Q12791); assay: Patch clamp recordings of Maxi-K channel currents in excised inside-out membrane patches; assay type: cell-based; settings: 1 nM concentration applied to internal side of excised inside-out patch; held at -80 mV, steps to +50 mV
T1 construct: expressed in transfected cells; host or cells: CHO cells (α alone) or HEK293 cells (α and β1)
Source text: Electrophysiological Assays of Compound Effects on High-conductance Calcium-activated Potassium Channels
Patch clamp recordings of currents flowing through high-conductance calcium-activated potassium (Maxi-K) channels were made from membrane patches excised from CHO cells constitutively expressing the α-subunit of the Maxi-K channel or HEK293 cells constitutively expressing both α- and β1-subunits using conventional techniques (Hamill et al., 1981, Pflügers Archiv. 391, 85-100) at room temperature. Glass capillary tubing (Garner #7052) was pulled in two stages to yield micropipettes with tip diameters of approximately 1-2 microns. Pipettes were typically filled with solutions containing (mM): 150 KCl, 10 Hepes (4-(2-hydroxyethyl)-1-piperazine […]), 1 Mg, 0.01 Ca, and adjusted to pH 7.20 with 3.7 mM KOH. After forming a high resistance (>10^9 ohms) seal between the plasma membrane and the pipette, the pipette was withdrawn from the cell, forming an excised inside-out membrane patch. […]
The effects of the compounds of the present invention on Maxi-K channels were examined in excised inside-out membrane patches. […] The fraction of channels blocked in each experiment was calculated from the reduction in peak current caused by application of the specified compound to the internal side of the membrane patch. […]

[2] = target: T2, Maxi-K channel (alpha and beta1 subunits) (Homo sapiens, UniProt Q12791); assay: FRET (VIPR) membrane potential assay in HEK-293 cells transfected with alpha and beta1 subunits of the maxi-K channel; assay type: cell-based
T2 construct: expressed in transfected cells
Method: The identification of inhibitors of the Maxi-K channel is based on the ability of expressed Maxi-K channels to set cellular resting potential after transfection of both alpha and beta1 subunits of the channel in HEK-293 cells and after being incubated with potassium channel blockers that selectively eliminate the endogenous potassium conductances of HEK-293 cells. In the absence of Maxi-K channel inhibitors, the transfected HEK-293 cells display a hyperpolarized membrane potential, negative inside, close to EK (−80 mV) which is a consequence of the activity of Maxi-K channels. Blockade of the Maxi-K channel by incubation with Maxi-K channel blockers will cause cell depolarization. Changes in membrane potential can be determined with voltage-sensitive fluorescence resonance energy transfer (FRET) dye pairs that use two components, a donor coumarin (CC2DMPE) and an acceptor oxanol (DiSBAC2(3)).
Oxanol is a lipophilic anion and distributes across the membrane according to membrane potential. Under normal conditions, when the inside of the cell is negative with respect to the outside, oxanol is accumulated at the outer leaflet of the membrane and excitation of coumarin will cause FRET to occur. Conditions that lead to membrane depolarization will cause the oxanol to redistribute to the inside of the cell, and, as a consequence, a decrease in FRET. […]

[3] = system: Normotensive Dutch Belted rabbits; assay: Intraocular pressure (IOP) measurements in rabbits; assay type: in vivo, rabbit; settings: for reduction of IOP: 25 μl, normal Dutch Belted rabbits; for ocular hypotensive response (significance): all doses (0.5, 0.1 and 0.01%); for ocular hypotensive response (significance) / contralateral effect on IOP (fellow eye): topical, Dutch Belted rabbits; for contralateral effect on IOP (fellow eye): all doses tested (0.5, 0.1 and 0.01%)
Method: Intraocular Pressure (IOP) Measurements in Rabbits
Normotensive Dutch Belted rabbits (2.3 kg) of either sex were maintained on a 12-hour light/dark cycle during these experiments. Intraocular pressure (IOP) was measured using a calibrated pneumatonometer (Alcon Applanation Pneumatonograph), and results expressed in millimeters of mercury (mmHg). Before tonometry, one drop of 0.05% proparacaine was applied to the corneas to minimize any discomfort to the animal. Two base-line (control) readings were taken at (−0.5 and 0 hr.) after which Compounds I, Ia or II were administered topically (unilaterally applied into the conjunctival sac) in a 25 μl volume with the contralateral (fellow) eye receiving an equal volume of vehicle. A masked design was utilized, where the person involved in drug administration and measurement of IOP had no knowledge of the solutions' contents. Subsequently, IOP measurements were taken at 0.5, 1, 2, 3, 4, 5 and 6 hr after topical applications of drug. At the end of each day's measurements, stability of the tonometer was determined using the calibrator/verifier.

[4] = 0.01% unilateral topical application
[5] = 0.1% unilateral topical application
[6] = 0.5% unilateral topical application

T2 sequence (Q12791 whole entry): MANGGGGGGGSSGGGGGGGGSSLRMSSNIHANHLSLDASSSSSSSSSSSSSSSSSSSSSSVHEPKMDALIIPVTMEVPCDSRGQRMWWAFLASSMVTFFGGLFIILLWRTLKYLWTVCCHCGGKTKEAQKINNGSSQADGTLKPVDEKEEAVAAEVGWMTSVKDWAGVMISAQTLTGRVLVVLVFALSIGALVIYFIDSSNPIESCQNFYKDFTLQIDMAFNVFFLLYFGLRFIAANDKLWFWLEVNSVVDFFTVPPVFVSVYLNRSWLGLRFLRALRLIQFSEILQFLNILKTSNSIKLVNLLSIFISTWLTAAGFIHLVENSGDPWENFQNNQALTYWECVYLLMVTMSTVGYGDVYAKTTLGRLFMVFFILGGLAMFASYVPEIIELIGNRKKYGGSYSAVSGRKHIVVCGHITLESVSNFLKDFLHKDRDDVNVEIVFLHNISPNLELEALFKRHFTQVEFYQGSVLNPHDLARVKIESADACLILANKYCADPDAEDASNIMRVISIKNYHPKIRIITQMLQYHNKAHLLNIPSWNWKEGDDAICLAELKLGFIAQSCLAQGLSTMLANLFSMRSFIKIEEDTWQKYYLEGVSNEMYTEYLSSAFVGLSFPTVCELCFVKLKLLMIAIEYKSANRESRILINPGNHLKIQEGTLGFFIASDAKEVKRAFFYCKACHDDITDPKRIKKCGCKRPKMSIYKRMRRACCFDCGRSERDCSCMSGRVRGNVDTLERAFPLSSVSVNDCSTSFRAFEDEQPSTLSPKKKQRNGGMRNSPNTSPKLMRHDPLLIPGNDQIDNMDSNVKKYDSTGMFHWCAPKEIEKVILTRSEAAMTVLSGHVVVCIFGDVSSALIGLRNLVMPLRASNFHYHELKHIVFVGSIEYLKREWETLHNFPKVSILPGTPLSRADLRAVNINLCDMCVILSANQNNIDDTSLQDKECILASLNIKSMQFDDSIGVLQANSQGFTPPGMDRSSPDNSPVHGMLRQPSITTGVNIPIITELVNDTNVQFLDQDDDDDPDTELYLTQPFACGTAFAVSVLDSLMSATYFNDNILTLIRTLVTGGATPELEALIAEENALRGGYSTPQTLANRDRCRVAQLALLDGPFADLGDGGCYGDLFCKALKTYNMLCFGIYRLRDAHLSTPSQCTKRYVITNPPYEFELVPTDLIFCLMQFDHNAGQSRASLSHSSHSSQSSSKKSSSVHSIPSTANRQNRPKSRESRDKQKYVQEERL
T2 sequence (Q16558 whole entry partner): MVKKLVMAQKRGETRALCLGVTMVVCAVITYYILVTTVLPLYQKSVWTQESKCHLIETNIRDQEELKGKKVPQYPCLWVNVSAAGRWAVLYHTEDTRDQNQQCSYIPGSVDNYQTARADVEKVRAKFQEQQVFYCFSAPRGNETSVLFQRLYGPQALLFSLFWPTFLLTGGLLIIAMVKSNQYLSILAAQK
T1 sequence (Q12791 whole entry): as the sequence (Q12791 whole entry) above

CC(C)C[C@@H](C(=O)O[C@H]1C[C@H]2Cc3c([nH]c4ccccc34)[C@]2(C)[C@@]2(C)CC[C@@]34O[C@@H](C(=O)C=C3[C@]12O)C(C)(C)O4)N(C)C [Compound Ia]
decrease in Maxi-K channel currents [1]: 88%
pIC50 [2]: ≥ 7.00
reduction of IOP [3, 4]: 3 mmHg
reduction of IOP [3, 5]: 3.3 mmHg
reduction of IOP [3, 6]: 3.7 mmHg
ocular hypotensive response (significance) [3]: significant
contralateral effect on IOP (fellow eye) [3]: significant contralateral effect

CC(C)[C@@H](C(=O)O[C@H]1C[C@H]2Cc3c([nH]c4ccccc34)[C@]2(C)[C@@]2(C)CC[C@@]34O[C@@H](C(=O)C=C3[C@]12O)C(C)(C)O4)N(C)C [Ib]
pIC50 [2]: ≥ 7.00
reduction of IOP [3, 4]: 3 mmHg
reduction of IOP [3, 5]: 3.3 mmHg
reduction of IOP [3, 6]: 3.7 mmHg
ocular hypotensive response (significance) [3]: significant
contralateral effect on IOP (fellow eye) [3]: significant contralateral effect

— patent US7294646B2, “Maxi-k channel blockers, methods of use and process for making the same” (Merck & Co. Inc., priority 2002, dated 2007)
